Experiments:
Format in all cases: in vivo
[1] = system: redroot pigweed (Amaranthus retroflexus L.): AMARE; assay: Test Example 1: pre-emergence herbicidal activity (growth controlling degree); conditions: 500 g a.i./ha, 20th to 21st day after application
Description: (§1) Upland field soil was put into a 1/170,000 ha pot, and seeds of various plants [1. barnyardgrass (Echinochloa crus-galli L.): ECHCC, 2. crabgrass (Digitaria sanguinalis L.): DIGSA, 3. green foxtail (Setaria viridis L.): SETVI, 4. redroot pigweed (Amaranthus retroflexus L.): AMARE, 5. prickly sida (Sida spinosa L.): SIDSP, 6. velvetleaf (Abutilon theophrasti): ABUTH, 7. common cocklebur (Xanthium strumarium L.): XANST, 8. rice (Oryza sativa L.): ORYSA, 9. wheat (Triticum aestivum L.): TRZAX, 10. corn (Zea mays L.): ZEAMX, 11. soybean (Glycine max Merr.): GLXMA] were sown. Then, one day after the sowing, a wettable powder or emulsifiable concentrate having the compound of the present invention formulated in accordance with a usual formulation method, was weighed so that the active ingredient would be a predetermined amount, and diluted with water in an amount of 500 L/ha. The herbicide adjusted was applied by a small size sprayer for pre-emergence treatment. On the 20th to 21st day after the application of the herbicide, the growth of the respective plants was visually observed, and the herbicidal effects were evaluated by growth controlling degrees (%) ranging from 0 (equivalent to the untreated control) to 100 (complete kill), whereby the results shown in Table 11, were obtained. Compound Nos. in Table 11 correspond to Compound Nos. in Table 1 to 7 given hereinbefore.

[2] = system: velvetleaf (Abutilon theophrasti): ABUTH; assay: as above; conditions: 500 g a.i./ha, 20th to 21st day after application
Description: as §1

[3] = system: common cocklebur (Xanthium strumarium L.): XANST; assay: as above; conditions: 500 g a.i./ha, 20th to 21st day after application
Description: as §1

[4] = system: prickly sida (Sida spinosa L.): SIDSP; assay: as above; conditions: 500 g a.i./ha, 20th to 21st day after application
Description: as §1

[5] = system: rice (Oryza sativa L.): ORYSA; assay: as above; conditions: 500 g a.i./ha, 20th to 21st day after application
Description: as §1

[6] = system: crabgrass (Digitaria sanguinalis L.): DIGSA; assay: as above; conditions: 500 g a.i./ha, 20th to 21st day after application
Description: as §1

[7] = system: corn (Zea mays L.): ZEAMX; assay: as above; conditions: 500 g a.i./ha, 20th to 21st day after application
Description: as §1

[8] = system: green foxtail (Setaria viridis L.): SETVI; assay: as above; conditions: 500 g a.i./ha, 20th to 21st day after application
Description: as §1

[9] = system: barnyardgrass (Echinochloa crus-galli L.): ECHCC; assay: as above; conditions: 500 g a.i./ha, 20th to 21st day after application
Description: as §1

[10] = system: rice (Oryza sativa L.: ORYSA); assay: Test Example 3: water application herbicidal activity, paddy (growth controlling degree); conditions: rate 63 g a.i./ha, paddy pot, rice of 2 leaf stage transplanted, treated on the 4th day after transplantation
Description: (§2) Paddy field soil was put into a {fraction (1/1,000,000)} ha pot, and seeds of barnyardgrass (Echinochloa oryzicola: ECHOR) and japanese bulrush (Scirpus juncoides: SCPJO) were sown and slightly covered with soil. Then the pot was left to stand still in a greenhouse in a state where the depth of flooding water was from 0.5 to 1 cm, and one day later, tubers of japanese ribbon wapato (Sagittaria pygmaea: SAGPY) were planted. Thereafter, the depth of flooding water was maintained at a level of from 3 to 4 cm, and when barnyardgrass and japanese bulrush reached a 0.5 leaf stage, an aqueous diluted solution of a wettable powder or emulsifiable concentrate having the compound of the present invention formulated in accordance with a usual formulation method, was uniformly applied under submerged condition by a pipette so that the dose of the active ingredient would be at a predetermined level. On the other hand, paddy filed soil was put into a {fraction (1/1,000,000)} ha pot and puddled and leveled, and the depth of flooding water was from 3 to 4 cm. One day later, rice (Oryza sativa L.: ORYSA) of 2 leaf stage was transplanted in a depth of 3 cm. On the 4th day after the transplantation, the compound of the present invention was applied in the same manner as described above. On the 14th day after the application of the herbicide, the growth of barnyardgrass, japanese burlush and japanese ribbon wapato was visually observed and on the 21st day after the application of the herbicide, the growth of rice was visually observed, and the herbicidal effects were evaluated by growth controlling degrees (%) ranging from 0 (equivalent to the untreated control) to 100 (complete kill), whereby the results shown in Table 13, were obtained. Compound Nos. in Table 13 correspond to Compound Nos. in Table 1 to 7 given hereinbefore.

[11] = system: japanese bulrush (Scirpus juncoides: SCPJO); assay: as above; conditions: rate 63 g a.i./ha, water application under submerged condition, paddy pot, japanese bulrush at 0.5 leaf stage
Description: as §2

[12] = system: barnyardgrass (Echinochloa oryzicola: ECHOR); assay: as above; conditions: rate 63 g a.i./ha, water application under submerged condition, paddy pot, barnyardgrass at 0.5 leaf stage
Description: as §2

[13] = system: velvetleaf (Abutilon theophrasti), ABUTH; assay: Test Example 2: post-emergence (foliage treatment) herbicidal activity (growth controlling degree); conditions: 0.3-0.4 leaf stage
Description: (§3) Upland field soil was put into a 1/170,000 ha pot, and seeds of various plants were sown. Then, when the plants reached predetermined leaf stages [I. barnyardgrass (Echinochloa crus-galli L.), ECHCG: 1.8-2.4 leaf stage, 2. crabgrass (Digitaria sanguinalis L.), DIGSA: 1.5-2.2 leaf stage, 3. green foxtail (Setaria viridis L.), SETVI: 1.7-2.5 leaf stage, 4. redroot pigweed (Amaranthus retroflexus L.), AMARE: 0.1-0.3 leaf stage, 5. prickly sida (Sida spinosa L.), SIDSP: 0.3-0.5 leaf stage, 6. velvetleaf (Abutilon theophrasti), ABUTH: 0.3-0.4 leaf stage, 7. common cocklebur (Xanthium strumarium L.), XANST: 0.2-0.6 leaf stage, 8. rice (Oryza sativa L.), ORYSA: 1.6-2.2 leaf stage, 9. wheat (Triticum aestivum L.), TRZAX: 2.8 leaf stage, 10. corn (Zea mays L.), ZEAMX: 2.2-2.5 leaf stage, 11. soybean (Glycine max Merr.), GLXMA: 0.2-0.3 leaf stage], a wettable powder or emulsifiable concentrate having the compound of the present invention formulated in accordance with a usual formulation method, was weighed so that the active ingredient would be a predetermined amount, and diluted with water in an amount of 500 L/ha. To the diluted solution, 0.1%(v/v) of an agricultural spreader was added. The herbicide adjusted was applied by a small size sprayer for foliage treatment. On the […] day after the application of the herbicide, the growth of the respective plants was visually observed, and the herbicidal effects were evaluated by growth controlling degrees (%) ranging from 0 (equivalent to the untreated control) to 100 (complete kill), whereby the results shown in Table 12, were obtained. Compound Nos. in Table 12 correspond to Compound Nos. in Table 1 to 7 given hereinbefore.

[14] = system: barnyardgrass (Echinochloa crus-galli L.), ECHCG; assay: as above; conditions: 1.8-2.4 leaf stage
Description: as §3

[15] = system: prickly sida (Sida spinosa L.), SIDSP; assay: as above; conditions: 0.3-0.5 leaf stage
Description: as §3

[16] = system: soybean (Glycine max Merr.), GLXMA; assay: as above; conditions: 0.2-0.3 leaf stage
Description: as §3

[17] = system: corn (Zea mays L.), ZEAMX; assay: as above; conditions: 2.2-2.5 leaf stage
Description: as §3

[18] = system: crabgrass (Digitaria sanguinalis L.), DIGSA; assay: as above; conditions: 1.5-2.2 leaf stage
Description: as §3

[19] = system: rice (Oryza sativa L.), ORYSA; assay: as above; conditions: 1.6-2.2 leaf stage
Description: as §3

[20] = system: green foxtail (Setaria viridis L.), SETVI; assay: as above; conditions: 1.7-2.5 leaf stage
Description: as §3

[21] = system: redroot pigweed (Amaranthus retroflexus L.), AMARE; assay: as above; conditions: 0.1-0.3 leaf stage
Description: as §3

[22] = system: japanese ribbon wapato (Sagittaria pygmaea: SAGPY); assay: Test Example 3: water application herbicidal activity, paddy (growth controlling degree); conditions: rate 63 g a.i./ha; water application under submerged condition, paddy pot; tubers of japanese ribbon wapato planted
Description: as §2

[23] = system: common cocklebur (Xanthium strumarium L.), XANST; assay: Test Example 2: post-emergence (foliage treatment) herbicidal activity (growth controlling degree); conditions: Xanthium strumarium, 504 h, 31 g a.i./ha, 0.2-0.6 leaf stage
Description: as §3

CC1CCc2c(c(Cl)cc(F)c2-c2ncc(C(F)(F)F)cc2Cl)O1 (centres unmarked) [Compound 7-4]
growth controlling degree, AMARE [1]: 100%
growth controlling degree, ABUTH [2]: 100%
growth controlling degree, XANST [3]: 10%
growth controlling degree, SIDSP [4]: 100%
growth controlling degree, ORYSA [5]: 30%
growth controlling degree, DIGSP [6]: 100%
growth controlling degree, ZEAMX [7]: 40%
growth controlling degree, SETVI [8]: 100%
growth controlling degree, ECHCG [9]: 70%
Water Application Herbicidal Activity ORYSA (growth controlling degree) [10]: 0%
Water Application Herbicidal Activity SCPJO (growth controlling degree) [11]: 90%
Water Application Herbicidal Activity ECHOR (growth controlling degree) [12]: 70%
growth controlling degree, ABUTH ([13]; 63 g a.i./ha): 100%
growth controlling degree, ECHCG ([14]; 63 g a.i./ha): 50%
growth controlling degree, SIDSP ([15]; 63 g a.i./ha): 80%
growth controlling degree, GLXMA ([16]; 63 g a.i./ha): 50%
growth controlling degree, ZEAMX ([17]; 63 g a.i./ha): 70%
growth controlling degree, DIGSP ([18]; 63 g a.i./ha): 50%
growth controlling degree, ORYSA ([19]; 63 g a.i./ha): 60%
growth controlling degree, SETVI ([20]; 63 g a.i./ha): 80%
growth controlling degree, AMARE ([21]; 63 g a.i./ha): 95%

Cn1nc(-c2c(F)cc(Cl)c3c2CCC(C)(C)O3)c(Cl)c1OC(F)F [Compound 1-40, 4-chloro-3-(8-chloro-6-fluoro-3,4-dihydro-2,2-dimethyl-2H-1-benzopyran-5-yl)-5-(difluoromethoxy)-1-methyl-1H-pyrazole]
Water Application Herbicidal Activity SAGPY (growth controlling degree) [22]: 95%
pest or weed control at 63 g/ha ([10]; Oryza sativa, 504 h): 35%
pest or weed control at 63 g/ha ([11]; Schoenoplectiella juncoides, 336 h): 100%
pest or weed control at 63 g/ha ([12]; Echinochloa oryzicola, 336 h): 100%
pest or weed control at 31 g/ha ([13]; Abutilon theophrasti, 504 h, 31 g a.i./ha): 100%
pest or weed control at 31 g/ha ([14]; Echinochloa crus-galli, 504 h, 31 g a.i./ha): 100%
pest or weed control at 31 g/ha ([15]; Sida spinosa, 504 h, 31 g a.i./ha): 100%
pest or weed control at 31 g/ha ([16]; Glycine max, 504 h, 31 g a.i./ha): 60%
pest or weed control at 31 g/ha [23]: 100%
plant injury at 31 g/ha ([17]; Zea mays, 504 h, 31 g a.i./ha): 70%
pest or weed control at 31 g/ha ([18]; Digitaria sanguinalis, 504 h, 31 g a.i./ha, read-out: growth controlling degree, DIGSP): 100%
plant injury at 31 g/ha ([19]; Oryza sativa, 504 h, 31 g a.i./ha): 70%
pest or weed control at 31 g/ha ([20]; Setaria viridis, 504 h, 31 g a.i./ha): 100%
growth controlling degree, AMARE ([21]; 31 g a.i./ha): 100%

From patent US20040157738A1, “Novel oxygen containing fused cyclic derivatives and herbicidal, desiccant and defoliate compositions containing them” (ISHIHARA SANGYO KAISHA, LTD., priority 2003, published 2004)
